Data from patent US10654818B2, “Furane derivatives as inhibitors of ATAD2” (BAYER PHARMA AKTIENGESELLSCHAFT, priority 2015, dated 2020).

Molecular target: T1, recombinant, N-terminally GST-tagged ATAD2 bromodomain amino acids 981-1108 (Homo sapiens, UniProt Q6PL18)
T1 construct: ATAD2 bromodomain amino acids 981-1108; made in house; host or cells: E. coli
T1 sequence (Q6PL18 981-1108): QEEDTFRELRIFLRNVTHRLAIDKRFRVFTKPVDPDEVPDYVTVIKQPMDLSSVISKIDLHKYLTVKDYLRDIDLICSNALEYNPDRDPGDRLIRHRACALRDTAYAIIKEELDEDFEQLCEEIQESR
Experiment: TR-FRET assay: disruption of the interaction between ATAD2 and acetylated Histone H4 (Ac-H4) peptide
Assay type: binding
Details: inhibition of ATAD2/Ac-H4 complex formation; 10 nM ATAD2, 50 nM Ac-H4 peptide
From the text: The ability of the compounds described in the present invention to disrupt the interaction between ATAD2 and acetylated Histone H4 (Ac-H4) was used as quantitative measure of their ATAD2-binding affinities.
To this end a TR-FRET assay which detects the binding of an Ac-H4-derived synthetic peptide (purchased from e.g. Biosyntan (Berlin, Germany)) of sequence HSGRGKGGGGKGLGK(Ac)GGAKRHRK-Biotin to recombinant, N-terminally GST-tagged ATAD2 bromodomain amino acids 981-1108. The protein was produced in-house via E. coli expression followed by GSH-Sepharose affinity- and Superdex S200-size exclusion chromatography purification.
Typically, 11 different concentrations of each compound (0.1 nM, 0.33 nM, 1.1 nM, 3.8 nM, 13 nM, 44 nM, 0.15 μM, 0.51 μM, 1.7 μM, 5.9 μM and 20 μM) were tested in duplicate within the same microtiter plate. To this end, 100-fold concentrated compound solutions (in DMSO) were previously prepared with a Precision Pippeting System (BioTek) by serial dilution (1:3.4) of 2 mM stocks in clear, low-volume 384-well microtiter source plates (Greiner Bio-One). Subsequently, 50 nl of compounds were transferred into black, low-volume test plates from the same supplier using a Hummingbird capillary based liquid handling instrument (Digilab). Tests were started by the addition of 2 μl of 2.5-fold concentrated ATAD2 solution (25 nM=10 nM final concentration in the 5 μl assay volume) in aqueous assay buffer [50 mM HEPES pH 7.5, 50 mM potassium fluoride (KF), 100 mM sodium chloride (NaCl), 0.25 mM CHAPS, 0.05% bovine serum albumine (BSA) and 1 mM dithiothreitol (DTT)] to the compounds in the test plate with a Multidrop dispenser (Thermo-Fisher). Test plates were then incubated 10′ at 22° C., in order to allow pre-equilibration of putative compound-ATAD2 complexes. Subsequently, 3 μl of a 1.67-fold concentrated solution containing Ac-H4 peptide (83.5 nM=50 nM final concentration) and TR-FRET detection reagents [16.7 nM Anti-GST-XL665 (Cisbio), =10 nM final concentration and 4.17 nM Lance EU W-1024 Streptavidin Europium Chelate (Perkin-Elmer)=2.5 nM final concentration were dispensed into the plates.
The mixture was further incubated in the dark for 1 hour at 22° C. Finally the inhibition of the formation of ATAD2/Ac-H4 complexes was assessed by measurement of the resonance energy transfer from the Streptavidin-Eu-Chelate to the anti-GST-XL665 antibody present in the reaction. To this end, the fluorescence emissions at 622 nm and 665 nm after excitation at 337 nm were measured in a TR-FRET reader, e.g. a Rubystar or Pherastar (both from BMG Lab Technologies) or a Viewlux (Perkin-Elmer) and the ratio of the emissions at 665 nm and at 622 nm was taken as indicator for the amount of ATAD2/Ac-H4 complexes in equilibrium.
The data were normalized using two sets of control wells (16 each). The first accounted for 100% ATAD2/Ac-H4 binding (0% inhibition), and contained all reaction components but DMSO instead of inhibitors. The second represented 0% ATAD2/Ac-H4 binding (100% inhibition), and included all assay components except ATAD2. IC50 values were calculated by fitting the normalized inhibition data to a 4-parameter logistic equation using either Screener software (Genedata) or a Bayer-proprietary analysis software.

Row | IC50 | SMILES
1 | 729 nM | Cc1ccc([C@@H](C)NCc2ccc(-c3ccc(Cl)c(C(=O)N[C@H](Cc4ccc(C#N)cc4)c4ncn[nH]4)c3)o2)cc1 [Example 20, 2-chloro-N-[(1R)-2-(4-cyanophenyl)-1-(1H-1,2,4-triazol-5-yl)ethyl]-5-[5-({[(1R)-1-(4-methylphenyl)ethyl]amino}methyl)-2-furyl]benzamide]
2 | 580 nM | Cc1ccc([C@@H](C)NCc2ccc(-c3ccc(Cl)c(C(=O)N[C@H](Cc4ccc(C#N)cc4)CN4CCN(C)CC4)c3)o2)cc1 [Example 21, 2-chloro-N-[(2R)-1-(4-cyanophenyl)-3-(4-methylpiperazin-1-yl)propan-2-yl]-5-[5-({[(1R)-1-(4-methylphenyl)ethyl]amino}methyl)-2-furyl]benzamide]
3 | 854 nM | Cc1ccc([C@@H](C)NCc2ccc(-c3ccc(Cl)c(C(=O)N[C@H](Cc4ccc(C#N)cc4)CN4CCOCC4)c3)o2)cc1 [Example 22, 2-chloro-N-[(2R)-1-(4-cyanophenyl)-3-(morpholin-4-yl)propan-2-yl]-5-[5-({[(1R)-1-(4-methylphenyl)ethyl]amino}methyl)-2-furyl]benzamide]
4 | 561 nM | Cc1ccc([C@@H](C)NCc2ccc(-c3ccc(Cl)c(C(=O)N[C@@H](CNCCO)Cc4ccc(C#N)cc4)c3)o2)cc1 [Example 23, 2-chloro-N-{(2R)-1-(4-cyanophenyl)-3-[(2-hydroxyethyl)amino]propan-2-yl}-5-[5-({[(1R)-1-(4-methylphenyl)ethyl]amino}methyl)-2-furyl]benzamide]
5 | 598 nM | Cc1ccc([C@@H](C)NCc2ccc(-c3ccc(Cl)c(C(=O)N[C@H](Cc4ccc(C#N)cc4)CN(C)C)c3)o2)cc1 [Example 24, 2-chloro-N-[(2R)-1-(4-cyanophenyl)-3-(dimethylamino)propan-2-yl]-5-[5-({[(1R)-1-(4-methylphenyl)ethyl]amino}methyl)-2-furyl]benzamide]
6 | 352 nM | Cc1ccc([C@@H](C)NCc2ccc(-c3ccc(Cl)c(C(=O)N[C@@H](CCN4CCN(C)CC4)Cc4ccc(C#N)cc4)c3)o2)cc1 [Example 25, 2-chloro-N-[(2R)-1-(4-cyanophenyl)-4-(4-methylpiperazin-1-yl)butan-2-yl]-5-[5-({[(1R)-1-(4-methylphenyl)ethyl]amino}methyl)-2-furyl]benzamide]
7 | 331 nM | Cc1ccc([C@@H](C)NCc2ccc(-c3ccc(Cl)c(C(=O)N[C@@H](CCNC(C)C)Cc4ccc(C#N)cc4)c3)o2)cc1 [Example 26, 2-chloro-N-[(2R)-1-(4-cyanophenyl)-4-(isopropylamino)butan-2-yl]-5-[5-({[(1R)-1-(4-methylphenyl)ethyl]amino}methyl)-2-furyl]benzamide]
8 | 116 nM | Cc1ccc([C@@H](C)NCc2ccc(-c3ccc(Cl)c(C(=O)N[C@@H](CCN4CCN[C@H](C)C4)Cc4ccc(C#N)cc4)c3)o2)cc1 [Example 27, 2-chloro-N-{(2R)-1-(4-cyanophenyl)-4-[(3R)-3-methylpiperazin-1-yl]butan-2-yl}-5-[5-({[(1R)-1-(4-methylphenyl)ethyl]amino}methyl)-2-furyl]benzamide]
9 | 148 nM | Cc1ccc([C@@H](C)NCc2ccc(-c3ccc(Cl)c(C(=O)N[C@@H](CCN4CCN[C@@H](C)C4)Cc4ccc(C#N)cc4)c3)o2)cc1 [Example 28, 2-chloro-N-{(2R)-1-(4-cyanophenyl)-4-[(3S)-3-methylpiperazin-1-yl]butan-2-yl}-5-[5-({[(1R)-1-(4-methylphenyl)ethyl]amino}methyl)-2-furyl]benzamide]
10 | 675 nM | Cc1ccc([C@@H](C)NCc2ccc(-c3ccc(Cl)c(C(=O)N[C@@H](CCN4CCOCC4)Cc4ccc(C#N)cc4)c3)o2)cc1 [Example 29, 2-chloro-N-[(2R)-1-(4-cyanophenyl)-4-(morpholin-4-yl)butan-2-yl]-5-[5-({[(1R)-1-(4-methylphenyl)ethyl]amino}methyl)-2-furyl]benzamide]
11 | 253 nM | Cc1ccc([C@@H](C)NCc2ccc(-c3ccc(Cl)c(C(=O)N[C@H](Cc4ccc(C#N)cc4)C(=O)NC4CCN(C)CC4)c3)o2)cc1 [Example 30, Nα-{2-chloro-5-[5-({[(1R)-1-(4-methylphenyl)ethyl]amino}methyl)-2-furyl]benzoyl}-4-cyano-N-(1-methylpiperidin-4-yl)-D-phenylalaninamide]
12 | 297 nM | Cc1ccc([C@@H](C)NCc2ccc(-c3ccc(Cl)c(C(=O)N[C@@H](CCN4CCN(C)C[C@@H]4C)Cc4ccc(C#N)cc4)c3)o2)cc1 [Example 31, 2-chloro-N-{(2R)-1-(4-cyanophenyl)-4-[(2S)-2,4-dimethylpiperazin-1-yl]butan-2-yl}-5-[5-({[(1R)-1-(4-methylphenyl)ethyl]amino}methyl)-2-furyl]benzamide]
13 | 130 nM | Cc1ccc([C@@H](C)NCc2ccc(-c3ccc(Cl)c(C(=O)N[C@@H](CCN4CCN(C)C[C@H]4C)Cc4ccc(C#N)cc4)c3)o2)cc1 [Example 32, 2-chloro-N-{(2R)-1-(4-cyanophenyl)-4-[(2R)-2,4-dimethylpiperazin-1-yl]butan-2-yl}-5-[5-({[(1R)-1-(4-methylphenyl)ethyl]amino}methyl)-2-furyl]benzamide]
14 | 423 nM | Cc1ccc([C@@H](C)NCc2ccc(-c3ccc(Cl)c(C(=O)N[C@@H](CCN[C@@H]4CCN(C)C4)Cc4ccc(C#N)cc4)c3)o2)cc1 [Example 34, 2-chloro-N-[(2R)-1-(4-cyanophenyl)-4-{[(3R)-1-methylpyrrolidin-3-yl]amino}butan-2-yl]-5-[5-({[(1R)-1-(4-methylphenyl)ethyl]amino}methyl)-2-furyl]benzamide]
15 | 466 nM | Cc1ccc([C@@H](C)NCc2ccc(-c3ccc(Cl)c(C(=O)N[C@@H](CCN[C@H]4CCN(C)C4)Cc4ccc(C#N)cc4)c3)o2)cc1 [Example 35, 2-chloro-N-[(2R)-1-(4-cyanophenyl)-4-{[(3S)-1-methylpyrrolidin-3-yl]amino}butan-2-yl]-5-[5-({[(1R)-1-(4-methylphenyl)ethyl]amino}methyl)-2-furyl]benzamide]
16 | 443 nM | Cc1ccc([C@@H](C)NCc2ccc(-c3ccc(Cl)c(C(=O)N[C@@H](CO)Cc4ccc(C#N)c(C)c4)c3)o2)cc1 [Example 37, 2-chloro-N-[(2R)-1-(4-cyano-3-methylphenyl)-3-hydroxypropan-2-yl]-5-[5-({[(1R)-1-(4-methylphenyl)ethyl]amino}methyl)-2-furyl]benzamide]
17 | 365 nM | Cc1ccc([C@@H](C)NCc2ccc(-c3ccc(Cl)c(C(=O)N[C@@H](CO)Cc4cc(F)c(C#N)cc4C)c3)o2)cc1 [Example 38, 2-chloro-N-[(2R)-1-(4-cyano-5-fluoro-2-methylphenyl)-3-hydroxypropan-2-yl]-5-[5-({[(1R)-1-(4-methylphenyl)ethyl]amino}methyl)-2-furyl]benzamide]
18 | 585 nM | COc1cc(C#N)ccc1C[C@H](CO)NC(=O)c1cc(-c2ccc(CN[C@H](C)c3ccc(C)cc3)o2)ccc1Cl [Example 39, 2-chloro-N-[(2R)-1-(4-cyano-2-methoxyphenyl)-3-hydroxypropan-2-yl]-5-[5-({[(1R)-1-(4-methylphenyl)ethyl]amino}methyl)-2-furyl]benzamide]
19 | 781 nM | Cc1ccc([C@@H](C)NCc2ccc(-c3ccc(Cl)c(C(=O)N[C@@H](CO)Cc4ccc(C#N)c(N)c4)c3)o2)cc1 [Example 40, N-[(2R)-1-(3-amino-4-cyanophenyl)-3-hydroxypropan-2-yl]-2-chloro-5-[5-({[(1R)-1-(4-methylphenyl)ethyl]amino}methyl)-2-furyl]benzamide]
